Source: publication PMC11911254 (Pharmacological Reports, 2025)

Columns and labels:
[1] = Concentration of paracetamol and its metabolites in plasma, CSF and brain cortex by LC-MS/MS; details: for concentration at 30 min: Sprague Dawley, rat; for Concentration in plasma / Concentration in brain: individual values if <3 samples
Experimental: Drug injection protocol is illustrated in Fig. 1.
Male and female postnatal P4 pups and 7–8 week-old non-pregnant females were used. […] In combination therapy experiments, this dose was accompanied by one of the 7 other drugs (Table 1). For all experiments, animals were terminally anesthetized 30 min after the drug injection using inhaled isoflurane (IsoFlo 100% w/w, Abbott Laboratories), and blood, CSF, and brain samples were collected. Blood was collected directly from the right cardiac ventricle, CSF from the cisterna magna, and cortical brain samples from the frontal/parietal lobes dorsal to the lateral ventricles as described previously.
Pregnant E19 dams were anesthetized with ip urethane injection (25% w/v urethane, Sigma, 1 ml/100 g body weight) and placed on a 39 °C heating pad in the supine position. An endotracheal catheter was inserted to maintain a clear airway. Catheters were inserted into the femoral vein and artery for iv drug administration and arterial blood sampling respectively. The cannula was flushed with 0.5 ml of heparinized saline (Hospira Inc, 5,000 units/ml) after drug administration and following each arterial blood sample. Following drug administration to the dams, fetuses were exteriorized and serially collected starting at 30 min post-maternal injection. […] At collection, the viability of each fetus was assessed (presence of a heartbeat, the colour of the umbilical vessels) and blood, CSF, and brain samples were taken along with a time-matched maternal blood sample from the femoral artery. At the end of the experiment, a final maternal blood sample was taken directly from the left cardiac ventricle, and CSF and brain samples were collected.
This method has been described previously for valproate, lamotrigine, and olanzapine and was applied in the present study. Simultaneous quantification was performed for all compounds in plasma, brain, and CSF samples following the addition of respective stable isotope-labeled internal standards.
Linear response range was determined in untreated control rat plasma for each compound at 0.1, 1, 10, 50, 100, 200, 400, and 800 µg/ml.

[2] = cited from earlier work
[3] = parameters: method as in PMID 7288602; details: rats; single dose of 15 mg/kg; cited from earlier work
[4] = non-pregnant adult rats, 30 min after ip paracetamol 15 mg/kg + lamotrigine 6 mg/kg (PARA+LTG, n=3), median (IQR)

CC(=O)Nc1ccc(O)cc1 [Paracetamol, reference compound]
concentration at 30 min ([1]; both, brain cortex, intraperitoneal, Concentration in brain, P4 rats, 30 min after ip paracetamol 15 mg/kg + valproate 30 mg/kg (PARA+VPA, n=4), median (IQR) or individual values): 5300 ng/mL
concentration at 30 min ([1]; both, brain, CSF, 15 mg/kg, brain and CSF concentrations, monotherapy 15 mg/kg, 30 min, all ages (E19, P4, adult)): 5000 to 10000 ng/mL
concentration at 30 min ([1]; both, plasma, intraperitoneal, 15 mg/kg, Concentration in plasma, P4 rats, 30 min after ip paracetamol 15 mg/kg monotherapy (PARA, n=4), median (IQR)): 5600 ng/mL
concentration at 30 min ([1]; both, plasma, intraperitoneal, Concentration in plasma, P4 rats, 30 min after ip paracetamol 15 mg/kg + cimetidine 11 mg/kg (PARA+CIM, n=4), median (IQR)): 10600 ng/mL
concentration at 30 min ([1]; both, plasma, intraperitoneal, Concentration in plasma, P4 rats, 30 min after ip paracetamol 15 mg/kg + digoxin 0.03 mg/kg (PARA+DIG, n=4), median (IQR)): 8200 ng/mL
concentration at 30 min ([1]; both, plasma, intraperitoneal, Concentration in plasma, P4 rats, 30 min after ip paracetamol 15 mg/kg + fluvoxamine 1.5 mg/kg (PARA+FLX, n=4), median (IQR)): 6500 ng/mL
concentration at 30 min ([1]; both, plasma, intraperitoneal, Concentration in plasma, P4 rats, 30 min after ip paracetamol 15 mg/kg + lamotrigine 6 mg/kg (PARA+LTG, n=5), median (IQR)): 7200 ng/mL
concentration at 30 min ([1]; both, plasma, intraperitoneal, Concentration in plasma, P4 rats, 30 min after ip paracetamol 15 mg/kg + lithium 3.2 mg/kg (PARA+Li, n=4), median (IQR)): 4300 ng/mL
concentration at 30 min ([1]; both, plasma, intraperitoneal, Concentration in plasma, P4 rats, 30 min after ip paracetamol 15 mg/kg + olanzapine 0.15 mg/kg (PARA+OLZ, n=4), median (IQR)): 5600 ng/mL
concentration at 30 min ([1]; both, plasma, intraperitoneal, Concentration in plasma, P4 rats, 30 min after ip paracetamol 15 mg/kg + valproate 30 mg/kg (PARA+VPA, n=4), median (IQR) or individual values): 6700 ng/mL
concentration at 30 min ([1]; both, plasma, intraperitoneal, concentration in plasma, P4, monotherapy and combination therapy with any of the drugs investigated): ~5000 ng/mL
concentration at 30 min ([1]; female, CSF, intraperitoneal, 15 mg/kg, Concentration in CSF, non-pregnant adult rats, 30 min after ip paracetamol 15 mg/kg monotherapy (PARA, n=6), median (IQR)): 5300 ng/mL
concentration at 30 min ([1]; female, CSF, intraperitoneal, Concentration in CSF, non-pregnant adult rats, 30 min after ip paracetamol 15 mg/kg + cimetidine 11 mg/kg (PARA+CIM, n=3), median (IQR)): 2100 ng/mL
concentration at 30 min ([1]; female, CSF, intraperitoneal, Concentration in CSF, non-pregnant adult rats, 30 min after ip paracetamol 15 mg/kg + digoxin 0.03 mg/kg (PARA+DIG, n=3), median (IQR)): 4200 ng/mL
concentration at 30 min ([1]; female, CSF, intraperitoneal, Concentration in CSF, non-pregnant adult rats, 30 min after ip paracetamol 15 mg/kg + fluvoxamine 1.5 mg/kg (PARA+FLX, n=4), median (IQR)): 4400 ng/mL
concentration at 30 min ([1]; female, CSF, intraperitoneal, Concentration in CSF, non-pregnant adult rats, 30 min after ip paracetamol 15 mg/kg + olanzapine 0.15 mg/kg (PARA+OLZ, n=4), median (IQR)): 4200 ng/mL
concentration at 30 min ([1]; female, CSF, intraperitoneal, Concentration in CSF, non-pregnant adult rats, 30 min after ip paracetamol 15 mg/kg + valproate 30 mg/kg (PARA+VPA, n=3), median (IQR)): 4700 ng/mL
concentration at 30 min ([1]; female, brain, intraperitoneal, 15 mg/kg, Concentration in brain, non-pregnant adult rats, 30 min after ip paracetamol 15 mg/kg monotherapy (PARA, n=6), median (IQR)): 8100 ng/mL
concentration at 30 min ([1]; female, brain, intraperitoneal, Concentration in brain, non-pregnant adult rats, 30 min after ip paracetamol 15 mg/kg + cimetidine 11 mg/kg (PARA+CIM, n=3), median (IQR)): 2900 ng/mL
concentration at 30 min ([1]; female, brain, intraperitoneal, Concentration in brain, non-pregnant adult rats, 30 min after ip paracetamol 15 mg/kg + olanzapine 0.15 mg/kg (PARA+OLZ, n=4), median (IQR)): 3900 ng/mL
concentration at 30 min ([1]; female, brain, intraperitoneal, Concentration in brain, non-pregnant adult rats, 30 min after ip paracetamol 15 mg/kg + valproate 30 mg/kg (PARA+VPA, n=3), median (IQR)): 7500 ng/mL
concentration at 30 min ([1]; female, plasma, intraperitoneal, 15 mg/kg, Concentration in plasma, non-pregnant adult rats, 30 min after ip paracetamol 15 mg/kg monotherapy (PARA, n=6), median (IQR)): 8400 ng/mL
concentration at 30 min ([1]; female, plasma, intraperitoneal, Concentration in plasma, non-pregnant adult rats, 30 min after ip paracetamol 15 mg/kg + digoxin 0.03 mg/kg (PARA+DIG, n=3), median (IQR)): 4400 ng/mL
concentration at 30 min ([1]; female, plasma, intraperitoneal, Concentration in plasma, non-pregnant adult rats, 30 min after ip paracetamol 15 mg/kg + fluvoxamine 1.5 mg/kg (PARA+FLX, n=4), median (IQR)): 4600 ng/mL
concentration at 30 min ([1]; female, plasma, intraperitoneal, Concentration in plasma, non-pregnant adult rats, 30 min after ip paracetamol 15 mg/kg + olanzapine 0.15 mg/kg (PARA+OLZ, n=4), median (IQR)): 6700 ng/mL
Concentration in plasma ([1]; non-pregnant adult rats, 30 min after ip paracetamol 15 mg/kg + cimetidine 11 mg/kg (PARA+CIM, n=3), median (IQR)): 3.4 (1.0) µg/ml
Concentration in brain ([1]; non-pregnant adult rats, 30 min after ip paracetamol 15 mg/kg + digoxin 0.03 mg/kg (PARA+DIG, n=3), median (IQR)): 4.3 (1.6) µg/ml
Concentration in brain [1, 4]: 7.1 (0.7) µg/ml
Concentration in plasma [1, 4]: 7.5 (1.0) µg/ml
Concentration in plasma ([1]; non-pregnant adult rats, 30 min after ip paracetamol 15 mg/kg + valproate 30 mg/kg (PARA+VPA, n=3), median (IQR)): 7.5 (1.3) µg/ml
fraction metabolized by glucuronidation via UGT enzymes ([2]; adult humans, liver): 55–60%
fraction metabolized by sulfation via SULT enzymes ([2]; adult humans, liver): 20–30%
fraction excreted unchanged in urine ([2]; adult humans): around 4%
fraction turned into NAPQI via cytochrome P450 enzymes ([2]; adult humans): Up to 10%
proportion of paracetamol's metabolism by the glutathione metabolic pathway [2]: < 10%
half-life [3]: around 16 min
